ChEMBL document CHEMBL1201862, “PubChem BioAssay data set” (2004)
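48-hour exposure; five concentrations; linearly interpolated endpoints. Abbreviation: GI50, concentration required for 50% inhibition of growth.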 Calls of active or inactive are those of the source. Cut-off read from the data, not from the text of the source: active = GI50 up to about 1.1 µM and inactive = higher.

Legend:
Test in all cases: NCI tumour cell line growth inhibition, 48 h
[1] = tested on: DLD-1
[2] = tested on: HCC 2998
[3] = tested on: HL-60
[4] = tested on: HOP-92
[5] = tested on: HT-29
[6] = tested on: LOX IMVI
[7] = tested on: MOLT-4
[8] = tested on: OVCAR-3
[9] = tested on: OVCAR-5
[10] = tested on: OVCAR-8
[11] = tested on: RXF 393
[12] = tested on: SK-MEL-2
[13] = tested on: SK-MEL-5
[14] = tested on: SN12C
[15] = tested on: SW-620
[16] = tested on: UACC-257
[17] = tested on: A498
[18] = tested on: HCT-116
[19] = tested on: RPMI-8226
[20] = tested on: SF-268

Measured: GI50

CC1OC=CC(=O)C1O (stereo unspecified)
inactive: [1] > 100 µM | [2] > 100 µM | [3] > 100 µM | [4] > 100 µM | [5] > 100 µM | [6] > 100 µM | [7] > 100 µM | [8] > 100 µM | [9] > 100 µM | [10] > 100 µM | [11] > 100 µM | [12] > 100 µM | [13] > 100 µM | [14] > 100 µM | [15] > 100 µM | [16] > 100 µM

O=C(O)/C=C/c1ccncc1
inactive: [17] > 100 µM | [1] > 100 µM | [2] > 100 µM | [18] > 100 µM | [3] > 100 µM | [4] > 100 µM | [5] > 100 µM | [6] > 100 µM | [7] > 100 µM | [8] > 100 µM | [9] > 100 µM | [10] > 100 µM | [19] > 100 µM | [11] > 100 µM | [20] > 100 µM | [12] > 100 µM | [13] > 100 µM | [14] > 100 µM | [15] > 100 µM | [16] > 100 µM

CCOC(=O)/C=C/c1c[nH]c(=O)[nH]c1=O
inactive: [17] > 75 µM | [1] > 75 µM | [2] > 75 µM | [18] > 75 µM | [3] > 75 µM | [4] > 75 µM | [5] > 75 µM | [6] > 75 µM | [7] > 33.4 µM | [8] > 75 µM | [9] > 75 µM | [10] > 75 µM | [19] > 39.4 µM | [11] > 75 µM | [20] > 75 µM | [12] > 75 µM | [13] > 75 µM | [14] > 75 µM | [15] > 47.3 µM | [16] > 75 µM

CCCCCCc1cn([C@H]2C[C@H](O)[C@@H](CO)O2)c(=O)[nH]c1=O
inactive: [17] > 100 µM | [1] > 100 µM | [2] > 100 µM | [18] > 100 µM | [3] > 100 µM | [4] > 100 µM | [5] > 100 µM | [6] > 100 µM | [8] > 100 µM | [9] > 100 µM | [10] > 100 µM | [19] > 100 µM | [11] > 100 µM | [20] > 100 µM | [12] > 100 µM | [13] > 100 µM | [14] > 100 µM | [15] > 100 µM | [16] > 100 µM

O=c1oc2c(ccc3occc32)c(N2CCCCC2)c1-c1ccccc1
inactive: [17] > 100 µM | [1] > 100 µM | [2] > 100 µM | [18] > 100 µM | [3] 24.2 µM | [4] > 73.8 µM | [5] 61.2 µM | [6] > 100 µM | [8] > 100 µM | [9] > 100 µM | [10] > 100 µM | [11] > 64.3 µM | [20] > 100 µM | [12] > 100 µM | [13] > 72.4 µM | [14] > 100 µM | [15] > 100 µM

Cc1ccc(C(=O)Nc2ccc(S(=O)(=O)O)c3cc(S(=O)(=O)O)cc(S(=O)(=O)O)c23)cc1NC(=S)Nc1cc(C(=O)Nc2ccc(S(=O)(=O)O)c3cc(S(=O)(=O)O)cc(S(=O)(=O)O)c23)ccc1C
inactive: [17] > 75 µM | [2] > 75 µM | [18] > 75 µM | [3] > 75 µM | [5] > 75 µM | [6] > 75 µM | [7] > 75 µM | [8] > 75 µM | [9] > 75 µM | [10] > 75 µM | [19] > 75 µM | [20] > 75 µM | [12] > 75 µM | [13] > 75 µM | [14] > 75 µM | [15] > 75 µM | [16] > 75 µM

Cc1cc(O)c2c(c1)C(=O)c1cc(O)cc(O)c1C2=O [EMODIN]
inactive: [17] 21.3 µM | [1] 23.3 µM | [2] 31.3 µM | [18] 24 µM | [3] 26.9 µM | [4] 14.4 µM | [5] 33.7 µM | [6] 15.9 µM | [7] 31 µM | [9] 39.4 µM | [19] 17.7 µM | [11] 41 µM | [20] 22 µM | [12] 33.9 µM | [13] 5.94 µM | [14] 20.5 µM | [15] 27.6 µM | [16] 28.1 µM

O=C1OC(c2ccccc2)=N/C1=C/c1cccs1
inactive: [2] > 100 µM | [3] 18.8 µM | [4] > 100 µM | [5] > 100 µM | [7] 14.5 µM | [8] 26.8 µM | [9] > 100 µM | [10] 63.1 µM | [19] 16.4 µM | [11] > 100 µM | [20] > 100 µM | [12] 49 µM | [15] > 100 µM | [16] 65.6 µM
